Experimental data from patent publication US8324131B2, “Composition and method for controlling plant diseases” (Sumitomo Chemical Company, Limited, priority 2008, dated 2012).

Legend:
[1] = system: Pythium ultimum, pathogen of cucumber damping-off; assay: Cucumber damping-off seed treatment test (Test Example 1); assay type: in vivo; conditions: 18° C., 13 days
Excerpt: An acetone solution of ethaboxam and an acetone solution of metconazole were mixed to prepare mixed liquids containing ethaboxam and metconazole in predetermined concentration. These mixed liquids were adhered on the surface of cucumber (Sagamihanjiro) seeds and allowed to stand still overnight. A plastic pot was filled with sandy soil and the seeds were disseminated on it. Then the seeds were covered with sandy soil which had been mixed with a bran medium on which Pythium ultimum, pathogen of cucumber damping-off, had been allowed to grow. They were irrigated and allowed to grow at 18° C. under humidity for 13 days, and thereafter control effect was checked.
As a comparison, acetone solutions containing ethaboxam in the predetermined concentration and acetone solutions containing metconazole in the predetermined concentration were prepared and subjected to similar tests.
In order to calculate the control value, the incidence of disease was also determined in the case in which the seeds had not been treated with the agent.
The incidence of disease was calculated by Equation 1 and the control value was calculated by Equation 2 based on the incidence of disease.
Incidence of disease=(Number of no emerging seedlings and number of seedlings in which development of disease was observed)×100/(Number of total disseminated seeds) “Equation 1” Control value=100×(A−B)/A “Equation 2”;
A: Incidence of disease of plant in untreated area
B: Incidence of disease of plant in treated area
Generally, the control value expected for the case in which the given two kinds of active ingredient compounds are mixed and used for the treatment, the so-called control value expectation is calculated from the following Colby's calculating equation. E=X+Y−(X×Y)/100 “Equation 3”;
X: Control value (%) when active ingredient compound A is used for treatment in M g per 100 kg or M ppm of seeds
Y: Control value (%) when active ingredient compound B is used for treatment in N g per 100 kg or N ppm of seeds
E: Control value (%) expected for the case in which active ingredient compound A in M g per 100 kg or M ppm of seeds and active ingredient compound B in N g per 100 kg or N ppm of seeds are mixed and used for treatment (hereinbelow referred to as “control value expectation”) “Synergetic effect (%)” (Actual control value)×100/(Control value expectation)

[2] = system: pathogen of cucumber gray mold; assay: Cucumber gray mold foliar spray test (Test Example 2); assay type: in vivo, Botrytis cinerea; conditions: 12.5 ppm of each test compound; for Actual control value: spray to stalk and leaves of cucumber seedlings, 12° C., high humidity, 6 days
Excerpt: A plastic pot was filled with sandy soil and cucumber (Sagamihanjiro) seeds were disseminated on it. Then the seeds were allowed to grow in a glasshouse for 12 days. A wettable powder of ethaboxam and a wettable powder of metconazole were individually diluted with water and then mixed to prepare mixed liquids containing ethaboxam and metconazole in predetermined concentration. These mixed liquids were sprayed to the stalk and leaves of cucumber seedlings to adhere them sufficiently on the surface of leaves of the seedlings. After spraying, the cucumber seedlings were air-dried and a PDA medium containing spores of pathogen of cucumber gray mold was placed onto the leaves of the seedlings. Then the plants were allowed to stand at 12° C. under high humidity for 6 days, and thereafter control effect was checked.
As a comparison, mixed liquids containing ethaboxam and triadimefon, mixed liquids containing ethaboxam and triadimenol, and mixed liquids containing ethaboxam and imazalil were prepared, sprayed to the stalk and leaves of cucumber seedlings to adhere them sufficiently on the surface of leaves of the seedlings, and subjected to similar tests, respectively. In addition, the above wettable powder of ethaboxam and the above wettable powder of metconazole were individually diluted with water to prepare liquids containing ethaboxam in predetermined concentration and liquids containing metconazole in predetermined concentration and then subjected to similar tests.
The incidence of disease was calculated by Equation 4 and the control value was calculated by Equation 2 based on the incidence of disease.
Incidence of disease=(diameter of leaf spot of plant in treated area)/(diameter of leaf spot of plant in untreated area)×100 “Equation 4”

CCNc1nc(CC)c(C(=O)NC(C#N)c2cccs2)s1 (stereo not drawn) [Ethaboxam] was tested, and the Actual control value ([1]; Ethaboxam 5 g/100 kg-seed alone) was 25%, the Actual control value ([1]; Ethaboxam 10 g/100 kg-seed alone) was 58% and the Control value expectation [2] was 0%. It also gave an Actual control value [2] of 0%.
For CC1(C)CCC(Cc2ccc(Cl)cc2)C1(O)Cn1cncn1 (stereo not drawn) [Metconazole], the Actual control value ([1]; Metconazole 5 g/100 kg-seed alone) was 0%, the Actual control value ([1]; Metconazole 10 g/100 kg-seed alone) was 0% and the Actual control value ([1]; Metconazole 20 g/100 kg-seed alone) was 0%. For the same compound, the Control value expectation [2] was 0% and the Actual control value [2] was 0%.
